Assay results: ChEMBL document CHEMBL3045961, “Synthesis and evaluation of some pyrimidine analogs against toxoplasmosis” (Med Chem Res, 2008)
Calls of active or inactive are those of the source. The calls are words filed in the database; no cut-off is given here.

Tests used:
[1] = molecular target: T1, Bifunctional dihydrofolate reductase-thymidylate synthase (Cryptosporidium parvum) (UniProt Q27552); experiment: Ratio of trimethorpin IC50 to compound IC50 for Cryptosporidium parvum recombinant DHFR
T1 sequence (whole entry): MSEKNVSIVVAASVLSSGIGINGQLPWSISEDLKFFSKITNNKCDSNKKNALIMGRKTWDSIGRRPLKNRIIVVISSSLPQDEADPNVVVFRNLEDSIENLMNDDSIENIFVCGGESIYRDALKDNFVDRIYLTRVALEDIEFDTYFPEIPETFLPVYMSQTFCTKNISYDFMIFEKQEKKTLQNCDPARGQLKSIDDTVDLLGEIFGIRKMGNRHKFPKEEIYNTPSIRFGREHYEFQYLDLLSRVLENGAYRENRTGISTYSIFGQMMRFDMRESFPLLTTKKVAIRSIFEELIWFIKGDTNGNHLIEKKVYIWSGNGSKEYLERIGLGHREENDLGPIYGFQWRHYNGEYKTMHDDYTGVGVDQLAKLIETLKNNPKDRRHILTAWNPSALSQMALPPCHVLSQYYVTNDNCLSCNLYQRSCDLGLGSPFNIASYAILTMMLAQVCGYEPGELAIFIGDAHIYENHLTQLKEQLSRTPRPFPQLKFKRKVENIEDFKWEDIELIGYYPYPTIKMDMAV

Dihydrofolate reductase = molecular target: T2, Dihydrofolate reductase (Homo sapiens, UniProt P00374); experiment: Inhibition of Homo sapiens (human) dihydrofolate reductase using dihydrofolate as substrate incubated for 5 min prior to substrate addition by spectrophotometric assay
T2 sequence (P00374 whole entry): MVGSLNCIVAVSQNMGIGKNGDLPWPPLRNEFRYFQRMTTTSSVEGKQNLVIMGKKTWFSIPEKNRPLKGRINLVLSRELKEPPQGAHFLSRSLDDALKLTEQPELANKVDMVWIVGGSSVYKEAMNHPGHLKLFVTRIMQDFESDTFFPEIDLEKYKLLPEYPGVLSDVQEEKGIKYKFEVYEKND

[2] = molecular target: T3, Bifunctional dihydrofolate reductase-thymidylate synthase (Cryptosporidium parvum, UniProt Q27552); experiment: Inhibition of Cryptosporidium parvum recombinant DHFR using dihydrofolate as substrate incubated for 5 min prior to substrate addition by spectrophotometric assay
T3 sequence (Q27552 whole entry): T1 sequence (whole entry)

Toxoplasma gondii [3] = experiment: Antiparasitic activity Toxoplasma gondii RH infected Swiss albino mouse assessed as decrease in interstitial pneumonia at 0.25 mg, po administered 48 hr post-infection measured after 3 days by haematoxylin and eosin staining relative to control; type: functional, organism-based
Toxoplasma gondii [4] = experiment: Antiparasitic activity Toxoplasma gondii RH infected Swiss albino mouse assessed as decrease in host lung congestion at 0.25 mg, po administered 48 hr post-infection measured after 3 days by haematoxylin and eosin staining relative to control; type: functional, organism-based
Toxoplasma gondii [5] = experiment: Antiparasitic activity Toxoplasma gondii RH infected Swiss albino mouse assessed as megakaryocytes in host spleen at 0.25 mg, po administered 48 hr post-infection measured after 3 days by haematoxylin and eosin staining relative to control; type: functional, organism-based
Toxoplasma gondii [6] = experiment: Antiparasitic activity Toxoplasma gondii RH infected Swiss albino mouse assessed as extramedullary hematopoiesis in host spleen at 0.25 mg, po administered 48 hr post-infection measured after 3 days by haematoxylin and eosin staining relative to control; type: functional, organism-based
Toxoplasma gondii [7] = experiment: Antiparasitic activity Toxoplasma gondii RH infected Swiss albino mouse assessed as epethelioid granuloma in host spleen at 0.25 mg, po administered 48 hr post-infection measured after 3 days by haematoxylin and eosin staining relative to control; type: functional, organism-based
Toxoplasma gondii [8] = experiment: Antiparasitic activity Toxoplasma gondii RH infected Swiss albino mouse assessed as increase in host spleen red pulp at 0.25 mg, po administered 48 hr post-infection measured after 3 days by haematoxylin and eosin staining relative to control; type: functional, organism-based
Toxoplasma gondii [9] = experiment: Antiparasitic activity Toxoplasma gondii RH infected Swiss albino mouse assessed as decrease in host spleen white pulp at 0.25 mg, po administered 48 hr post-infection measured after 3 days by haematoxylin and eosin staining relative to control; type: functional, organism-based
Toxoplasma gondii [10] = experiment: Antiparasitic activity Toxoplasma gondii RH infected Swiss albino mouse assessed as decrease in host spleen necrosis at 0.25 mg, po administered 48 hr post-infection measured after 3 days by haematoxylin and eosin staining relative to control; type: functional, organism-based
Toxoplasma gondii [11] = experiment: Antiparasitic activity Toxoplasma gondii RH infected Swiss albino mouse assessed as clear lymphocytes in host liver focal granuloma at 0.25 mg, po administered 48 hr post-infection measured after 3 days by haematoxylin and eosin staining relative to control; type: functional, organism-based
Toxoplasma gondii [12] = experiment: Antiparasitic activity Toxoplasma gondii RH infected Swiss albino mouse assessed as clear mononuclear cells in host liver focal granuloma at 0.25 mg, po administered 48 hr post-infection measured after 3 days by haematoxylin and eosin staining relative to control; type: functional, organism-based
Toxoplasma gondii [13] = experiment: Antiparasitic activity Toxoplasma gondii RH infected Swiss albino mouse assessed as decrease in host liver necrosis at 0.25 mg, po administered 48 hr post-infection measured after 3 days by haematoxylin and eosin staining relative to control; type: functional, organism-based
Toxoplasma gondii [14] = experiment: Antiparasitic activity Toxoplasma gondii RH infected Swiss albino mouse assessed as multiple deep ridged parasite surface in host peritoneal exudate at 0.25 mg, po administered 48 hr post-infection measured after 3 days by scanning electron microscopic analysis; type: functional, organism-based
Toxoplasma gondii [15] = experiment: Antiparasitic activity Toxoplasma gondii RH infected Swiss albino mouse assessed as parasite deformity in host peritoneal exudate at 0.25 mg, po administered 48 hr post-infection measured after 3 days by light microscopic analysis; type: functional, organism-based
Toxoplasma gondii [16] = experiment: Antiparasitic activity Toxoplasma gondii RH infected Swiss albino mouse assessed as decreased parasite movement in host peritoneal exudate at 0.25 mg, po administered 48 hr post-infection measured after 3 days by light microscopic analysis; type: functional, organism-based
Toxoplasma gondii [17] = experiment: Antiparasitic activity Toxoplasma gondii RH infected Swiss albino mouse assessed as decrease in Toxoplasma antigen in host serum at 0.25 mg, po administered 48 hr post-infection measured after 3 days by Co-A test relative to control; type: functional, organism-based
Toxoplasma gondii [18] = experiment: Antiparasitic activity against Toxoplasma gondii RH infected Swiss albino mouse assessed as decrease in tachozyte count in spleen at 0.25 mg, po administered 48 hr post-infection measured after 3 days by Geimsa staining relative to control; type: functional, organism-based
Toxoplasma gondii [19] = experiment: Antiparasitic activity against Toxoplasma gondii RH infected Swiss albino mouse assessed as decrease in tachozyte count in liver at 0.25 mg, po administered 48 hr post-infection measured after 3 days by Geimsa staining relative to control; type: functional, organism-based
Toxoplasma gondii [20] = experiment: Antiparasitic activity Toxoplasma gondii RH infected Swiss albino mouse assessed as decrease in tachyzoites end tapering in host peritoneal exudate at 0.25 mg, po administered 48 hr post-infection measured after 3 days by scanning electron microscopic analysis; type: functional, organism-based
Toxoplasma gondii [21] = experiment: Antiparasitic activity Toxoplasma gondii RH infected Swiss albino mouse assessed as elongated tachyzoites in host peritoneal exudate at 0.25 mg, po administered 48 hr post-infection measured after 3 days by scanning electron microscopic analysis; type: functional, organism-based
Toxoplasma gondii [22] = experiment: Antiparasitic activity Toxoplasma gondii RH infected Swiss albino mouse assessed as disorganised parasite conoid in host peritoneal exudate at 0.25 mg, po administered 48 hr post-infection measured after 3 days by scanning electron microscopic analysis; type: functional, organism-based
Toxoplasma gondii [23] = experiment: Antiparasitic activity Toxoplasma gondii RH infected Swiss albino mouse assessed as loss of parasite crescent shape in host peritoneal exudate at 0.25 mg, po administered 48 hr post-infection measured after 3 days by scanning electron microscopic analysis; type: functional, organism-based

Structure (SMILES)	IC50 (Dihydrofolate reductase)	IC50 [2]	Activity (Toxoplasma gondii [3])	Activity (Toxoplasma gondii [4])	Activity (Toxoplasma gondii [5])	Activity (Toxoplasma gondii [6])	Activity (Toxoplasma gondii [7])	Activity (Toxoplasma gondii [8])	Activity (Toxoplasma gondii [9])	Activity (Toxoplasma gondii [10])	Activity (Toxoplasma gondii [11])	Activity (Toxoplasma gondii [12])	Activity (Toxoplasma gondii [13])	Activity (Toxoplasma gondii [15])	Activity (Toxoplasma gondii [16])	Activity (Toxoplasma gondii [17])	Activity (Toxoplasma gondii [18])	Activity (Toxoplasma gondii [19])	other results
CCOC(=O)C1=C(C)NC(S/C(=C\c2ccc(OC)cc2)C(=O)OCC)=NC1c1ccccc1 (stereo not given)	0.01 µM	0.038 µM	Active	inactive	Active	Active	inactive	Active	Active	Active	Active	Active	Active	Active	Active	Active	Active	Active	Ratio IC50 [1]: 40; Activity (Toxoplasma gondii [14]): Active
CCOC(=O)CSC1=NC(c2ccccc2OC)C(C(=O)OCC)=C(C)N1 (stereo not given)	7.3 µM	5.1 µM	inactive	inactive	inactive	inactive	inactive	inactive	inactive	inactive	inactive	inactive	inactive	inactive	inactive	inactive	inactive	inactive	
CC(=O)C1=C(C)NC(=S)NC1c1cccc(O)c1 (stereo not given)	9.4 µM	7.6 µM	inactive	inactive	inactive	inactive	inactive	inactive	inactive	inactive	inactive	inactive	inactive	inactive	inactive	inactive	inactive	inactive	
COc1cc(Cc2cnc(N)nc2N)cc(OC)c1OC [TRIMETHOPRIM]		4 µM																	

Continued, in another order:

IC50 (Dihydrofolate reductase)	IC50 [2]	Structure (SMILES)	Activity (Toxoplasma gondii [3])	Activity (Toxoplasma gondii [4])	Activity (Toxoplasma gondii [5])	Activity (Toxoplasma gondii [6])	Activity (Toxoplasma gondii [7])	Activity (Toxoplasma gondii [8])	Activity (Toxoplasma gondii [9])	Activity (Toxoplasma gondii [10])	Activity (Toxoplasma gondii [11])	Activity (Toxoplasma gondii [12])	Activity (Toxoplasma gondii [13])	Activity (Toxoplasma gondii [15])	Activity (Toxoplasma gondii [16])	Activity (Toxoplasma gondii [17])	Activity (Toxoplasma gondii [18])	Activity (Toxoplasma gondii [19])	other results
0.0013 µM	0.027 µM	CC(=O)C1=C(C)N=C(SCCC(=O)O)NC1c1ccccc1 (stereo not given)	Active	inactive	inactive	inactive	Active	Active	Active	Active	Active	Active	Active	Active	Active	Active	Active	Active	Ratio IC50 [1]: 40; Activity (Toxoplasma gondii [20]): Active; Activity (Toxoplasma gondii [21]): Active; Activity (Toxoplasma gondii [22]): Active; Activity (Toxoplasma gondii [23]): Active
1.9 µM	2.4 µM	CCOC(=O)C1=C(C)NC(=S)NC1c1ccccc1OC (stereo not given)	inactive	inactive	inactive	inactive	inactive	inactive	inactive	inactive	inactive	inactive	inactive	inactive	inactive	inactive	inactive	inactive	
0.58 µM	4.7 µM	CCOC(=O)C1=C(C)NC(=S)NC1c1ccccc1 (stereo not given)	inactive	inactive	inactive	inactive	inactive	inactive	inactive	inactive	inactive	inactive	inactive	inactive	inactive	inactive	inactive	inactive	
2.9 µM	2.1 µM	CCOC(=O)C1=C(C)NC(=S)NC1/C=C\c1ccccc1 (stereo not given)	inactive	inactive	inactive	inactive	inactive	inactive	inactive	inactive	inactive	inactive	inactive	inactive	inactive	inactive	inactive	inactive	
3 µM	2.3 µM	CCOC(=O)C1=C(C)N=C(SCC(=O)c2ccc(Cl)c([N+](=O)[O-])c2)NC1c1ccccc1 (stereo not given)	inactive	inactive	inactive	inactive	inactive	inactive	inactive	inactive	inactive	inactive	inactive	inactive	inactive	inactive	inactive	inactive	
0.83 µM	3.2 µM	CCOC(=O)CSC1=NC(c2ccccc2)C(C(=O)OCC)=C(C)N1 (stereo not given)	inactive	inactive	inactive	inactive	inactive	inactive	inactive	inactive	inactive	inactive	inactive	inactive	inactive	inactive	inactive	inactive	
